Measured values taken from paper PMC11212140, “Molecular Bidents with Two Electrophilic Warheads as a New Pharmacological Modality” (ACS Central Science, 2024).

Tests used:
[1] = tested on: T1, CHED; assay: KiNativ profiling in H3255 cells; assay type: cell-based, human; conditions: 2.5 µM; Lys2; DIKCSNILLNNR
T1 construct: purchased ActivX Biosciences (KiNativ)

[2] = tested on: EGFR, ERK1/2, and Akt phosphorylation; assay: Immunoblot of EGFR signaling pathway in EGFR-mutated Ba/F3 cells; assay type: cell-based; conditions: EGFR^L858R, EGFR^L858R/C797S and EGFR^L858R/C775S Ba/F3 cells, 6 h
Method: Figure 5 ZNL-0056 covalently engages Cys775 and Cys797 in EGFR Ba/F3 cells. (A) The average IC50 values (mean ± S.D.) of the indicated compounds in EGFR^L858R Ba/F3, EGFR^L858R/C797S Ba/F3, and EGFR^L858R/C775S Ba/F3 cells after […] treatment. The graph was generated from three independent experiments, each performed with four replicates. (B) Immunoblot assessment of the effect of ZNL-0056 on the EGFR signaling pathway in EGFR^L858R Ba/F3, EGFR^L858R/C797S Ba/F3, and EGFR^L858R/C775S Ba/F3 cells after 6 h treatment. Representative data from two independent experiments are shown.
For infection of Ba/F3 cells, 2.5 mL of viral supernatant and 8 μg/mL polybrene was added to 2.5 million cells per well in six-well plates. The plate was centrifuged at 2500 rpm for 90 minutes at 37 °C for the spin infection. […]
Cells were lysed in RIPA buffer (150 mM NaCl, 1.0% IGEPAL® CA-630, 0.5% sodium deoxycholate, 0.1% SDS, 50 mM Tris, pH 8.0) (Sigma, Cat# R0278) with protease inhibitor and phosphatase inhibitor (Roche). The protein concentrations were measured by BCA analysis (Thermo Fisher Scientific, Cat # PI23225). […]
or IRDye 680RD goat anti-Mouse IgG (LICOR Biosciences , Cat # 926-68070) secondary antibodies at room temperature for 1 hour. The membranes were detected on Odyssey CLx system. […]

[3] = tested on: T2, EGFR^L858R kinase domain; assay: Determining sites of probe modification by MS; assay type: biochemical; conditions: EGFR^L858R protein, mass spectrometry
T2 construct: purified recombinant EGFR^L858R kinase domain treated by the compounds; made in house
Source text: Covalent docking (CovDock in Schrodinger software suite) was used to predict binding modes and scores of designed bident and mono-valent molecules. Thorough mode was used for docking and top 5 poses for each molecule were inspected visually to identify the most likely binding conformation based on the known core scaffold binding mode. Hinge hydrogen bonds of the core scaffolds were used as constraints in docking calculations. […]
reactive residues, only one cysteine was specified for covalent bond formation during docking of […]
for bident molecules, a proper binding mode required the other warhead in close proximity with its intended reactive cysteine. To obtain the final predicted binding mode in Figure 2B, the pre-reaction cysteine and warhead were manually linked with proper chemical bond, and the complex was optimized using receptor-ligand complex optimization protocol in Schrodinger suite with default settings. The final optimized complex was compared against the original binding mode to ensure minimal changes to the ligand and receptor residue conformations. […]
EGFR protein was treated with indicated probe for 2 hours at 30 °C in 50 mM HEPES buffer 100 mM NaCl pH 7.5. […] Peptides were desalted by C18 and analyzed by nanoLC-MS using a Waters NanoAcquity UPLC (Waters, Milford, MA) interfaced to a Orbitrap QExactive HF mass spectrometer (ThermoFisher Scientific, San Jose, CA). […]

| Compound | Inhibition [1] | inhibition of EGFR, ERK1/2, and Akt phosphorylation [2] | in vitro labeling of Cys797 and Cys775 [3] |
| --- | --- | --- | --- |
| C=CC(=O)Nc1cc(Nc2nccc(-c3cn(C)c4ccccc34)n2)c(OC)cc1N(C)CCN(C)C [Osimertinib, osimertinib, reference compound] | 28.0% |  |  |
| C=CC(=O)Nc1cc(C(=O)Nc2nc3cccc(C)c3n2[C@@H]2CCCCN(C(=O)C=C)C2)cs1 [ZNL-0056] |  | significantly inhibited | high in vitro labeling efficacy |
